Assay results as given in US11253471B2, “Rectal mucosal administration preparation of Pulsatilla chinensis saponin B4 and preparation method therefor” (priority 2018, dated 2022).

Tests used:
[1] = tested on: gentamicin-induced acute kidney injury in rats; test: Gentamicin-induced acute kidney injury in rats: serum indexes and urinary protein; type: in vivo, SD rats; conditions: for Urinary Protein, 5th day of administration / Urinary Protein, 6th day of administration / Urinary Protein, 7th day of administration / BUN / CREA / TP: by gavage; for BUN / CREA / TP: serum, 7 days
Excerpt: Acute renal failure induced by gentamicin was mainly manifested in the increase of creatinine and urea nitrogen, but the mechanism of gentamicin induced nephrotoxicity was still unclear. In this experiment, two kinds of rectal mucosa administration preparations of Pulsatilla chinensis saponin B4 according to the present invention were infused by anus to observe the preventive and therapeutic effects of tested drugs on gentamicin-induced ARF in rats, and compared with oral (gavage) administration of Pulsatilla chinensis saponin B4.
(§1) Dexamethasone solution: 4 tablets of dexamethasone were ground and dissolved in 100 ml double distilled water, and then diluted to 0.03 mg/ml.
B4 raw powder solution: 2000 mg of B4 raw powder was weighed, ground, and dissolved in 100 ml double distilled water to obtain 20 mg/ml solution.
Rats in experimental groups were intraperitoneally injected with gentamicin sulfate solution at the dose of 140 mg/kg, while the rats in the blank group were intraperitoneally injected with equal volume of normal saline, and the administration was continued for 7 days to make a model.
The animals were randomly divided into blank group; model group; positive drug group (dexamethasone group); B4 gel high, medium, and low dose groups; B4 suppository high, medium, and low dose groups; B4 powder group; 10 animals for each group. Animals in B4 gel groups received the gel by rectum at 0.3 ml/100 g body weight; animals in B4 suppository groups received the suppository by rectum; B4 raw powder group and positive group were given corresponding drugs by gavage according to 10 ml/kg body weight. The model group and the blank group were given the same volume of double distilled water by gavage. The drug was continuously administered for 7 days from the second day of modeling.
Urine proteins were detected by Coomassie brilliant blue method. After isoflurane anesthesia, blood samples were taken from eyeballs of rats. Serum was separated. Total protein (TP), urea nitrogen (BUN), and creatinine (CRE) were detected by automatic biochemical analysis.

[2] = tested on: cisplatin-induced acute kidney injury in mice; test: Cisplatin-induced acute kidney injury in mice: serum indexes and urinary protein; type: in vivo, ICR mice; conditions: for Urinary Protein / BUN / CREA / TP: by gavage, 4 days; for Urinary Protein: one hour after the last administration; for BUN / CREA / TP: serum
Experimental: After intraperitoneal injection of cisplatin, cisplatin was toxic to different parts of the kidney. It could cause changes in the function and morphology of glomerulus and renal tubules. Cisplatin could cause renal vasoconstriction, reduce renal blood flow and glomerular filtration rate, and thus cause proteinuria, renal function damage and other symptoms. In this study, B4 was administered by different routes (rectum and oral) to observe the preventive and therapeutic effects of B4 on cisplatin-induced ARF in mice.
2.1.2 Reagent: cisplatin, the original solution 5 mg/kg.
as §1
B4 raw powder solution: 1000 mg of B4 raw powder was weighed, ground, and dissolved in 100 ml double distilled water to obtain 10 mg/ml solution.
The model was established by cisplatin at a dosage of […]. The normal group was intraperitoneally injected with normal saline, and the other groups were intraperitoneally injected with cisplatin injection.
The animals were randomly divided into blank group; model group; positive drug group (dexamethasone group); B4 gel high, medium, and low dose groups; B4 suppository high, medium, and low dose groups; B4 raw powder group; 10 animals for each group. Animals in B4 gel groups received the gel by rectum at 0.3 ml/100 g body weight; animals in B4 suppository groups received the suppository by rectum; B4 raw powder group and positive group were given corresponding drugs by gavage according to 20 m/kg body weight. The model group and the blank group were given the same volume of double distilled water by gavage. The drug was continuously administered for 4 days from the day of modeling. Animals were fasted for 16-18 hours before administration on day 4.
One hour after the last administration, urine was collected to measure urine proteins. Blood samples were taken from eyeballs to separate serum. Total protein (TP), urea nitrogen (BUN) and creatinine (Cre) were detected by automatic biochemical analysis.

[3] = gel and suppository by rectum, raw powder oral

**Q.** How did the “Urinary Protein, 5th day of administration” value ([1]; 0.3 mg/kg) turn out when C[C@@H]1C[C@H]2[C@@H]3CCC4=CC(=O)C=C[C@]4(C)[C@@]3(F)[C@@H](O)C[C@]2(C)[C@@]1(O)C(=O)CO [Dexamethasone, reference compound] was run?
**A.** 5.15 ± 0.89 mg/mL

**Q.** And the “Urinary Protein, 6th day of administration” value ([1]; 0.3 mg/kg)?
**A.** 5.52 ± 1.36 mg/mL

**Q.** What about the “Urinary Protein, 7th day of administration” value ([1]; 0.3 mg/kg) of the same molecule?
**A.** 5.63 ± 0.58 mg/mL

**Q.** And the BUN ([1]; 0.3 mg/kg)?
**A.** 79.3 ± 33.6 mg/dL

**Q.** And the CREA ([1]; 0.3 mg/kg)?
**A.** 83.2 ± 31.9 µmol/L

**Q.** And the TP ([1]; 0.3 mg/kg)?
**A.** 65.7 ± 5.8 g/L

**Q.** And the “Urinary Protein” value ([2]; 0.6 mg/kg)?
**A.** 1.00 mg/mL

**Q.** What about the BUN ([2]; 0.6 mg/kg) of the same molecule?
**A.** 42.97 mg/dL

**Q.** What about the CREA ([2]; 0.6 mg/kg) of the same molecule?
**A.** 30.10 µmol/L

**Q.** And the TP ([2]; 0.6 mg/kg)?
**A.** 52.90 g/L

**Q.** What does the source list for C=C(C)C1CC[C@]2(C(=O)O[C@@H]3O[C@H](CO[C@@H]4O[C@H](CO)[C@@H](O[C@@H]5O[C@@H](C)[C@H](O)[C@@H](O)[C@H]5O)[C@H](O)[C@H]4O)[C@@H](O)[C@H](O)[C@H]3O)CC[C@]3(C)[C@H](CC[C@@H]4[C@@]5(C)CC[C@H](OC6OC[C@H](O)[C@H](O)[C@H]6O[C@@H]6O[C@@H](C)[C@H](O)[C@@H](O)[C@H]6O)[C@@](C)(CO)[C@@H]5CC[C@]43C)[C@@H]12 (stereo partly shown) [B4 raw powder, Pulsatilla chinensis saponin B4]?
**A.** Urinary Protein, 5th day of administration ([1]; 200 mg/kg): 4.86 ± 1.22 mg/mL; Urinary Protein, 6th day of administration ([1]; 200 mg/kg): 5.18 ± 1.15 mg/mL; Urinary Protein, 7th day of administration ([1]; 200 mg/kg): 5.38 ± 0.92 mg/mL; effect on renal function (creatinine and urea nitrogen), conclusion in words [1, 3]: had a tendency to improve the renal function; BUN ([1]; 200 mg/kg): 126.4 mg/dL; CREA ([1]; 200 mg/kg): 268.7 ± 56.2 µmol/L; TP ([1]; 200 mg/kg): 53.2 ± 4.3 g/L; Urinary Protein ([2]; 400 mg/kg): 1.55 mg/mL; effect on renal function, conclusion in words [2, 3]: no significant difference compared with the model group; BUN ([2]; 400 mg/kg): 55.86 mg/dL; CREA ([2]; 400 mg/kg): 38.11 ± 9.56 µmol/L; TP ([2]; 400 mg/kg): 46.12 ± 2.27 g/L
